Measured values reported in US4175125A, “Method for treating methicillin resistant staphylococcus aureus” (Eli Lilly and Company, priority 1978, dated 1979).
Converted amounts (≈) assume the structure as drawn. Where two headings read alike, the source gives them in different places. One block for each molecule: values may come before it.

Tests used:
[1] = tested on: Staphylococcus aureus cultures; assay: Agar dilution MIC, Example 13 compound vs methicillin resistant Staphylococcus aureus; type: cell-based
Source text: The table which follows gives the minimum inhibitory concentration (MIC) in micrograms of compound per milliliter of culture (μg/ml), in comparison with similar MIC values for the known antibiotics methicillin, cephalothin and cephaloridine against the same strains of bacteria.

[2] = tested on: Streptococcus pyogenes, strain C203; assay: Streptococcus pyogenes infection in mice, median effective dose (Example 12); type: in vivo
Experimental: The compound 7-[2"-(3"-chloro-4"-fluorophenyltio)acetamido]cephalosporanic acid, prepared as described in Example 8, was tested for antibiotic effectiveness against Streptococcus pyogenes, strain C203 infections in mice, and is compared with the effectiveness of cephaloridine in the same test. Experience has shown with other compounds, some of which are now commercial antibiotics, that a compound effective against Streptococcus pyrogenes, strain C203 in this test will be effective against Staphylococcus aureus strains in clinical use. This is intended as further evidence that the compounds of the method of this invention should be effective antibiotics in clinical situations.
In this test, a standard in vivo test method described by Wick, W. E., F. Streightoff, and D. H. Holmes. 1961, in J. Bacteriol., 81: 233-235 was used. The oral and subcutaneous median effective doses (ED50) necessary to cure 50 percent of the mice were calculated according to the method of Reed and Muench (Reed, L. J., and H. Meunch. 1938. Am. J. Hyg. 27: 493-497) The results were as follows: […]

[3] = tested on: methicillin-resistant Staphylococcus aureus; assay: Gradient plate test (MIC) against methicillin-resistant Staphylococcus aureus; type: cell-based; details: Staphylococcus aureus, read-out: minimum inhibitory concentration (MIC)
Experimental: The method used is essentially that described by Bryson and Szybalski in 1952 (Science 116:45-46). The inoculum treatment method used for penicillin resistant Staphylococci was reported by Godzeski et al in Antimicrobial Agents and Chemotherapy, May, 1969, pp. 547-554.
A standard Falcon square plastic petri dish is used. A layer of agar (10 ml.) is poured into one of the square dishes, the dish tipped 5 mm. off the horizontal, and the agar layer allowed to harden in this position. This bottom layer of agar contains the antibiotic, the serum, and/or other material to be tested. The medium is Difco Penassay Agar containing 2 percent agar. We routinely used 4 ml. of human or horse serum for "serum-inactivation" testing. […] Therefore, serum is routinely added only to the bottom layer.
After the bottom, slanted layer of agar medium has hardened, the plate is placed flat and another 10 ml. of medium added and allowed to harden.
The inoculum of resistant Staphylococci, as described, is prepared by diluting the water suspension 1/50 in 0.25 percent agar in sterile water or saline. For Gram negative organisms, an overnight broth culture is diluted 1/50 in the 0.25 percent agar-water. This dilution is thoroughly shaken to evenly suspend the bacteria. To streak the plate, we use a 1 ml. pipet containing an aliquot of the final […] agar dilution. After a little practice, a smooth even stroke of inoculum can be laid down very rapidly. The trick is in the smoothness of the streak--it must be accomplished uniformly and quickly.
After 24 hours incubation at 35°-37° C. the plates are read by simply measuring the length of bacterial growth as a percentage of the entire streak distance which is then converted to the percent of antibiotic concentration in the plate.
Average values of duplicate measurements are calculated and the M.I.C.'s reported are average of 2 streaks on the plate and from 2 to 3 duplicate plates. Eight streaks can be easily placed on each plate. If sharp end points are not obtained, the middle concentration between the beginning of inhibition of the streak to the end of growth is measured. The concentration of the antibiotic under examination is varied from plate to plate in a series as follows: […]
This method of screening penicillins and cephalosporins is quite satisfactory. Control plates containing penicillin and staphcillin or prostaphlin, or other control antibiotic, are used daily for the resistant staphylococcal activity screen. The gradient plate method has shown differences between antibiotics that were not apparent by any other methods of screening. […] We believe that the gradient plate screen is more sensitive to small differences between related antibiotics than other methods and pictures of the plates can provide a permanent record. The method also lends itself readily to modification of specific purposes--e.g., cross gradients.
The compounds listed below are examples of compounds useful in the method of this invention. After the compound name there is given in parentheses, where tested, the minimum inhibitory concentrations (MIC) in micrograms per milliliter (μg/ml) for the compound in the above described gradient plate procedure test against methicillin-resistant Staphylococcus aureus, (in the absence of blood serum/in the presence of 20 percent blood serum).
and pharmaceutically acceptable salts thereof. The abbreviation "s.z." means skip zones.

Compound: O=C(Cc1cccs1)N[C@@H]1C(=O)N2C(C(=O)[O-])=C(C[n+]3ccccc3)CS[C@H]12 [Cephaloridine, cephaloridine, reference compound]
MIC ([1]; culture 3055 (control), Trypticase Soy Agar with 4.5% NaCl added (5% NaCl), read-out: MIC): 0.13 µg/mL (≈ 0.313 µM) | MIC ([1]; culture 3055 (control), Trypticase Soy Agar, 0.5% NaCl, read-out: MIC): 0.03 µg/mL (≈ 0.0722 µM) | MIC ([1]; culture 3130, Trypticase Soy Agar with 4.5% NaCl added (5% NaCl), read-out: MIC): 1 µg/mL (≈ 2.41 µM) | MIC ([1]; culture 3130, Trypticase Soy Agar, 0.5% NaCl, read-out: MIC): 0.5 µg/mL (≈ 1.2 µM) | MIC ([1]; culture 3131, Trypticase Soy Agar with 4.5% NaCl added (5% NaCl), read-out: MIC): 1 µg/mL (≈ 2.41 µM) | MIC ([1]; culture 3131, Trypticase Soy Agar, 0.5% NaCl, read-out: MIC): 0.5 µg/mL (≈ 1.2 µM) | MIC ([1]; culture 3132, Trypticase Soy Agar with 4.5% NaCl added (5% NaCl), read-out: MIC): 0.5 µg/mL (≈ 1.2 µM) | MIC ([1]; culture 3132, Trypticase Soy Agar, 0.5% NaCl, read-out: MIC): 0.25 µg/mL (≈ 0.602 µM) | MIC ([1]; culture 3133, Trypticase Soy Agar with 4.5% NaCl added (5% NaCl), read-out: MIC): 0.25 µg/mL (≈ 0.602 µM) | MIC ([1]; culture 3133, Trypticase Soy Agar, 0.5% NaCl, read-out: MIC): 0.13 µg/mL (≈ 0.313 µM) | MIC ([1]; culture 3134, Trypticase Soy Agar with 4.5% NaCl added (5% NaCl), read-out: MIC): 1 µg/mL (≈ 2.41 µM) | MIC ([1]; culture 3134, Trypticase Soy Agar, 0.5% NaCl, read-out: MIC): 1 µg/mL (≈ 2.41 µM) | MIC ([1]; culture 3135, Trypticase Soy Agar with 4.5% NaCl added (5% NaCl), read-out: MIC): 4 µg/mL (≈ 9.63 µM) | MIC ([1]; culture 3135, Trypticase Soy Agar, 0.5% NaCl, read-out: MIC): 0.5 µg/mL (≈ 1.2 µM) | MIC ([1]; culture 3136, Trypticase Soy Agar with 4.5% NaCl added (5% NaCl), read-out: MIC): 4 µg/mL (≈ 9.63 µM) | MIC ([1]; culture 3136, Trypticase Soy Agar, 0.5% NaCl, read-out: MIC): 0.13 µg/mL (≈ 0.313 µM) | MIC ([1]; culture 3137, Trypticase Soy Agar with 4.5% NaCl added (5% NaCl), read-out: MIC): 4 µg/mL (≈ 9.63 µM) | MIC ([1]; culture 3137, Trypticase Soy Agar, 0.5% NaCl, read-out: MIC): 4 µg/mL (≈ 9.63 µM) | MIC ([1]; culture 3138, Trypticase Soy Agar with 4.5% NaCl added (5% NaCl), read-out: MIC): 4 µg/mL (≈ 9.63 µM) | MIC ([1]; culture 3138, Trypticase Soy Agar, 0.5% NaCl, read-out: MIC): 1 µg/mL (≈ 2.41 µM) | MIC ([1]; culture 3139, Trypticase Soy Agar with 4.5% NaCl added (5% NaCl), read-out: MIC): 0.13 µg/mL (≈ 0.313 µM) | MIC ([1]; culture 3139, Trypticase Soy Agar, 0.5% NaCl, read-out: MIC): 0.5 µg/mL (≈ 1.2 µM) | MIC ([1]; culture H232 (control), Trypticase Soy Agar with 4.5% NaCl added (5% NaCl), read-out: MIC): 0.13 µg/mL (≈ 0.313 µM) | MIC ([1]; culture H232 (control), Trypticase Soy Agar, 0.5% NaCl, read-out: MIC): 0.06 µg/mL (≈ 0.144 µM) | MIC ([1]; culture Havarmak 1136501, Trypticase Soy Agar with 4.5% NaCl added (5% NaCl), read-out: MIC): 8 µg/mL (≈ 19.3 µM) | MIC ([1]; culture Havarmak 1136501, Trypticase Soy Agar, 0.5% NaCl, read-out: MIC): 1 µg/mL (≈ 2.41 µM) | MIC ([1]; culture S 61, Trypticase Soy Agar with 4.5% NaCl added (5% NaCl), read-out: MIC): 1 µg/mL (≈ 2.41 µM) | MIC ([1]; culture S 61, Trypticase Soy Agar, 0.5% NaCl, read-out: MIC): 1 µg/mL (≈ 2.41 µM) | MIC ([1]; culture Seattle 966, Trypticase Soy Agar with 4.5% NaCl added (5% NaCl), read-out: MIC): 0.13 µg/mL (≈ 0.313 µM) | MIC ([1]; culture Seattle 966, Trypticase Soy Agar, 0.5% NaCl, read-out: MIC): 0.5 µg/mL (≈ 1.2 µM) | ED50 ([2]; C203, po): 0.323 mg/kg | ED50 ([2]; C203, sc): 0.1 mg/kg

Compound: CC(=O)OCC1=C(C(=O)O)N2C(=O)[C@@H](NC(=O)Cc3cccs3)[C@H]2SC1 [Cephalothin, cephalothin, reference compound]
MIC ([1]; culture 3055 (control), Trypticase Soy Agar with 4.5% NaCl added (5% NaCl)): 0.25 µg/mL (≈ 0.631 µM) | MIC ([1]; culture 3055 (control), Trypticase Soy Agar, 0.5% NaCl): 0.13 µg/mL (≈ 0.328 µM) | MIC ([1]; culture 3130, Trypticase Soy Agar with 4.5% NaCl added (5% NaCl)): 1 µg/mL (≈ 2.52 µM) | MIC ([1]; culture 3130, Trypticase Soy Agar, 0.5% NaCl): 0.5 µg/mL (≈ 1.26 µM) | MIC ([1]; culture 3131, Trypticase Soy Agar with 4.5% NaCl added (5% NaCl)): 1 µg/mL (≈ 2.52 µM) | MIC ([1]; culture 3131, Trypticase Soy Agar, 0.5% NaCl): 0.5 µg/mL (≈ 1.26 µM) | MIC ([1]; culture 3132, Trypticase Soy Agar with 4.5% NaCl added (5% NaCl)): 0.5 µg/mL (≈ 1.26 µM) | MIC ([1]; culture 3132, Trypticase Soy Agar, 0.5% NaCl): 0.5 µg/mL (≈ 1.26 µM) | MIC ([1]; culture 3133, Trypticase Soy Agar with 4.5% NaCl added (5% NaCl)): 0.5 µg/mL (≈ 1.26 µM) | MIC ([1]; culture 3133, Trypticase Soy Agar, 0.5% NaCl): 0.5 µg/mL (≈ 1.26 µM) | MIC ([1]; culture 3134, Trypticase Soy Agar with 4.5% NaCl added (5% NaCl)): 1 µg/mL (≈ 2.52 µM) | MIC ([1]; culture 3134, Trypticase Soy Agar, 0.5% NaCl): 2 µg/mL (≈ 5.04 µM) | MIC ([1]; culture 3135, Trypticase Soy Agar with 4.5% NaCl added (5% NaCl)): 1 µg/mL (≈ 2.52 µM) | MIC ([1]; culture 3135, Trypticase Soy Agar, 0.5% NaCl): 1 µg/mL (≈ 2.52 µM) | MIC ([1]; culture 3136, Trypticase Soy Agar with 4.5% NaCl added (5% NaCl)): 1 µg/mL (≈ 2.52 µM) | MIC ([1]; culture 3136, Trypticase Soy Agar, 0.5% NaCl): 0.5 µg/mL (≈ 1.26 µM) | MIC ([1]; culture 3137, Trypticase Soy Agar with 4.5% NaCl added (5% NaCl)): 1 µg/mL (≈ 2.52 µM) | MIC ([1]; culture 3137, Trypticase Soy Agar, 0.5% NaCl): 2 µg/mL (≈ 5.04 µM) | MIC ([1]; culture 3138, Trypticase Soy Agar with 4.5% NaCl added (5% NaCl)): 2 µg/mL (≈ 5.04 µM) | MIC ([1]; culture 3138, Trypticase Soy Agar, 0.5% NaCl): 1 µg/mL (≈ 2.52 µM) | MIC ([1]; culture 3139, Trypticase Soy Agar with 4.5% NaCl added (5% NaCl)): 0.25 µg/mL (≈ 0.631 µM) | MIC ([1]; culture 3139, Trypticase Soy Agar, 0.5% NaCl): 0.5 µg/mL (≈ 1.26 µM) | MIC ([1]; culture H232 (control), Trypticase Soy Agar with 4.5% NaCl added (5% NaCl)): 0.25 µg/mL (≈ 0.631 µM) | MIC ([1]; culture H232 (control), Trypticase Soy Agar, 0.5% NaCl): 2.5 µg/mL (≈ 6.31 µM) | MIC ([1]; culture Havarmak 1136501, Trypticase Soy Agar with 4.5% NaCl added (5% NaCl)): 1 µg/mL (≈ 2.52 µM) | MIC ([1]; culture Havarmak 1136501, Trypticase Soy Agar, 0.5% NaCl): 1 µg/mL (≈ 2.52 µM) | MIC ([1]; culture S 61, Trypticase Soy Agar with 4.5% NaCl added (5% NaCl)): 1 µg/mL (≈ 2.52 µM) | MIC ([1]; culture S 61, Trypticase Soy Agar, 0.5% NaCl): 1 µg/mL (≈ 2.52 µM) | MIC ([1]; culture Seattle 966, Trypticase Soy Agar with 4.5% NaCl added (5% NaCl)): 0.25 µg/mL (≈ 0.631 µM) | MIC ([1]; culture Seattle 966, Trypticase Soy Agar, 0.5% NaCl): 0.5 µg/mL (≈ 1.26 µM)

MIC ([3]; in the absence of blood serum): 1 µg/mL (≈ 2.04 µM) | MIC ([3]; in the presence of 20 percent blood serum): 1.7 µg/mL
Compound: CC(=O)OCC1=C(C(=O)O)N2C(=O)C(NC(=O)CSc3ccc(Cl)c(Cl)c3)C2SC1 (stereo not shown) [Example 1, 7-(3,4-dichlorophenylthioacetamido)cephalosporanic acid]
